{"source": "paper PMC8249783", "about": "“A novel multikinase inhibitor SKLB‐YTH‐60 ameliorates inflammation and fibrosis in bleomycin‐induced lung fibrosis mouse models” (Cell Proliferation, 2021)", "key": {"[1]": {"system": "Human pulmonary fibroblasts (HPF)", "experiment": "Cell viability assay (CCK8)", "type": "cell-based", "conditions": "24‐72 hours", "procedure": "(§1) The cell viability of YTH‐60 and Nintedanib treatment was performed by MTT and CCK8 assay. Briefly, the exponentially growing cells were seeded in 96‐well (2‐5 × 10^3 cells·well^−1) and cultured for 24 hours. The cells were treated with different concentrations of YTH‐60 (0, 0.625, 1.25, 2.5, 5, 10 µmol·L^−1), after treatment for 24, 48 and 72 hours, respectively, a volume of 20 μL of 5 mg·mL^−1 MTT solution or 10 μL CCK‐8 solution was added to each well and incubation for 2‐4 hours at 37°C. Finally, the 96‐well plates were read on Multiskan FC microplate spectrophotometer at 570 or 450 nm wavelength."}, "[2]": {"system": "NIH‐3T3 (mouse embryonic fibroblast)", "experiment": "Cell viability assay (CCK8)", "type": "cell-based", "conditions": "NIH‐3T3, 24‐72 hours", "procedure": "as §1"}, "[3]": {"system": "MRC‐5 human embryo lung fibroblast", "experiment": "Cell viability assay (CCK8)", "type": "cell-based", "conditions": "MRC‐5, 24‐72 hours", "procedure": "as §1"}, "Flt3 (h)": {"target": "Flt3 (h) (Homo sapiens, UniProt P36888)", "experiment": "Kinase profile assay and IC50 test (Eurofins)", "type": "biochemical", "conditions": "double testing", "procedure": "(§2) The in vitro kinase enzymatic inhibition assays were carried out by the Kinase Profiling Services provided by Eurofins (UK). The detailed protocol descriptions can be provided by the website (https://www.eurofinsdiscoveryservices.com)."}, "KDR (h)/VEGFR2": {"target": "KDR (h)/VEGFR2 (Homo sapiens, UniProt P35968)", "sequence (P35968 20-1356)": "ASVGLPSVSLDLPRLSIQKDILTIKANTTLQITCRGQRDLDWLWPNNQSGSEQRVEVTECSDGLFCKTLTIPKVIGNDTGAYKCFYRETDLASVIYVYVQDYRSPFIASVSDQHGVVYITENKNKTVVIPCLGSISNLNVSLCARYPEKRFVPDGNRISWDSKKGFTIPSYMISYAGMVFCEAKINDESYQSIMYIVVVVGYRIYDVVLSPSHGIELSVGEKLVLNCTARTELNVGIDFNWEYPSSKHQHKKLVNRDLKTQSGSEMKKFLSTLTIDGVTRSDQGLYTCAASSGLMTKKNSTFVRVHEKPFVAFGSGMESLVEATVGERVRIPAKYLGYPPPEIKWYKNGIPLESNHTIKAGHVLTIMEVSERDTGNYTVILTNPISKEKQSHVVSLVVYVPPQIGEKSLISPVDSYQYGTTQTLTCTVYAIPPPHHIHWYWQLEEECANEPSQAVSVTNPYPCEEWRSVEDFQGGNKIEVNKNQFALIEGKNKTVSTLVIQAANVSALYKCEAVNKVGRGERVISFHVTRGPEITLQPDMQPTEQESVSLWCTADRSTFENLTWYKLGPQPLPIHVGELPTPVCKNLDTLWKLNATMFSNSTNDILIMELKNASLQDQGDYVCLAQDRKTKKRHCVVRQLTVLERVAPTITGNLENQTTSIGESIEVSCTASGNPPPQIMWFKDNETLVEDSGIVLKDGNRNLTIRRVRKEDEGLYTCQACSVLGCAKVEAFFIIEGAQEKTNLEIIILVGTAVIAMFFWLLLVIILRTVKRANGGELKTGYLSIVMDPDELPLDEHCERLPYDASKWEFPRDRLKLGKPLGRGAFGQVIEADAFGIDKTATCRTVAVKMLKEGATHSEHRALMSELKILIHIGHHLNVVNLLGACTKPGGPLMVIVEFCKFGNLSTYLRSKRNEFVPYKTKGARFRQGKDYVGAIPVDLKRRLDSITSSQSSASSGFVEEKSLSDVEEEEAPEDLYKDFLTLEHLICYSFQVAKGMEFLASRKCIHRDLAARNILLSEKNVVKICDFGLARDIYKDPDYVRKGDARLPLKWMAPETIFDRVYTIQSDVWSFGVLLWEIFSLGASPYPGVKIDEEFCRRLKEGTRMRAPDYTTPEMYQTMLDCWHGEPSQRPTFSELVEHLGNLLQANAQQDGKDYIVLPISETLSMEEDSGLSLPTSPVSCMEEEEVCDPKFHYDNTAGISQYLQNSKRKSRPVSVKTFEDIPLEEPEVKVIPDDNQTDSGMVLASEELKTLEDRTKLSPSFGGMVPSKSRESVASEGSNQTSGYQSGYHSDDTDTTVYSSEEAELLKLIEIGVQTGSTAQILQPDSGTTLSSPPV", "experiment": "Kinase profile assay and IC50 test (Eurofins)", "type": "biochemical", "conditions": "double testing", "procedure": "as §2"}, "FGFR2 (h)": {"target": "FGFR2 (h) (Homo sapiens, UniProt P21802)", "sequence (P21802 22-821)": "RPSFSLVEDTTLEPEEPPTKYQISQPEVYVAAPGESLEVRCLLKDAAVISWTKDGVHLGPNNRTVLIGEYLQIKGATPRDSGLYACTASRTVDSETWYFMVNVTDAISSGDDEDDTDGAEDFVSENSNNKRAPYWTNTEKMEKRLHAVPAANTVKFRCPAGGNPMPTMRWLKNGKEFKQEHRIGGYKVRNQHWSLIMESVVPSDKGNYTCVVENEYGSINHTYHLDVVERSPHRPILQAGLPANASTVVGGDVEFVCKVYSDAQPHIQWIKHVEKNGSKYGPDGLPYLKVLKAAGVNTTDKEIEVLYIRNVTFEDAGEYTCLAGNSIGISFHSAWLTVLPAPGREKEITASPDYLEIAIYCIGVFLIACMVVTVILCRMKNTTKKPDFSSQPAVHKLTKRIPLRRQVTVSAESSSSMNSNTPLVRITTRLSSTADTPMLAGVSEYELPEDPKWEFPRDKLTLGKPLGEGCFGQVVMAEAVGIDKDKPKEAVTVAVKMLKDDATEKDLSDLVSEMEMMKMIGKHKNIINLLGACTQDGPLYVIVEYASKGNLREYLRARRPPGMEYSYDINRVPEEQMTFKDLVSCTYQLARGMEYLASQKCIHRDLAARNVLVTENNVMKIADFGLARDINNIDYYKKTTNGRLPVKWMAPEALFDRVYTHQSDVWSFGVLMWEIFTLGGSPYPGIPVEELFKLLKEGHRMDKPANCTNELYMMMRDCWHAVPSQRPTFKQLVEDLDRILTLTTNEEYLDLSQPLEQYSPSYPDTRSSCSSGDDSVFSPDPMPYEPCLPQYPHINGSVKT", "experiment": "Kinase profile assay and IC50 test (Eurofins)", "type": "biochemical", "conditions": "double testing", "procedure": "as §2"}, "FGFR4 (h)": {"target": "FGFR4 (h) (Homo sapiens, UniProt P22455)", "experiment": "Kinase profile assay and IC50 test (Eurofins)", "type": "biochemical", "conditions": "double testing", "procedure": "as §2"}, "FGFR3 (h)": {"target": "FGFR3 (h) (Homo sapiens, UniProt P22607)", "sequence (P22607 23-806)": "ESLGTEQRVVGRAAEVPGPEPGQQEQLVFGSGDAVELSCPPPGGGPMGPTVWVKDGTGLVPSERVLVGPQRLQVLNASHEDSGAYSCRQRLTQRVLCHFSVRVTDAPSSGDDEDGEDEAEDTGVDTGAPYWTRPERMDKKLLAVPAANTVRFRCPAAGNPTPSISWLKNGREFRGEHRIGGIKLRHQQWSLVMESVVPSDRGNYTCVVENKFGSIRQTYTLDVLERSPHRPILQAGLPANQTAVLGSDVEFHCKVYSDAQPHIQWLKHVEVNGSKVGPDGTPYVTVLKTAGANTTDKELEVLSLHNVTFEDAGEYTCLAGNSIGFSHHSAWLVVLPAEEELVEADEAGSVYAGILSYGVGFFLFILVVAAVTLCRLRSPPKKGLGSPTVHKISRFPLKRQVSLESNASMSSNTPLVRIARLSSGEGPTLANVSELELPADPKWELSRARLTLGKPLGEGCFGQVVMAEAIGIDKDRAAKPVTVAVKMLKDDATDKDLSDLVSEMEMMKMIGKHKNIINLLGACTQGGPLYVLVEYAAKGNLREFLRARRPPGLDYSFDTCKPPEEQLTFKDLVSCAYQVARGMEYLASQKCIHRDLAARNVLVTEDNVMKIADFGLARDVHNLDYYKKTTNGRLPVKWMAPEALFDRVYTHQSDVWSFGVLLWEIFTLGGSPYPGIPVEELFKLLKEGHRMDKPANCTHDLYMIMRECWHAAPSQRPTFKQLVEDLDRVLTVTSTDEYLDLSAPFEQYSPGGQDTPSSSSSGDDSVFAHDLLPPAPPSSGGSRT", "experiment": "Kinase profile assay and IC50 test (Eurofins)", "type": "biochemical", "conditions": "double testing", "procedure": "as §2"}, "FGFR1 (h)": {"target": "FGFR1 (h) (Homo sapiens, UniProt P11362)", "experiment": "Kinase profile assay and IC50 test (Eurofins)", "type": "biochemical", "conditions": "double testing", "procedure": "as §2"}, "PDGFRα (h)": {"target": "PDGFRα (h) (Homo sapiens, UniProt P16234)", "sequence (P16234 24-1089)": "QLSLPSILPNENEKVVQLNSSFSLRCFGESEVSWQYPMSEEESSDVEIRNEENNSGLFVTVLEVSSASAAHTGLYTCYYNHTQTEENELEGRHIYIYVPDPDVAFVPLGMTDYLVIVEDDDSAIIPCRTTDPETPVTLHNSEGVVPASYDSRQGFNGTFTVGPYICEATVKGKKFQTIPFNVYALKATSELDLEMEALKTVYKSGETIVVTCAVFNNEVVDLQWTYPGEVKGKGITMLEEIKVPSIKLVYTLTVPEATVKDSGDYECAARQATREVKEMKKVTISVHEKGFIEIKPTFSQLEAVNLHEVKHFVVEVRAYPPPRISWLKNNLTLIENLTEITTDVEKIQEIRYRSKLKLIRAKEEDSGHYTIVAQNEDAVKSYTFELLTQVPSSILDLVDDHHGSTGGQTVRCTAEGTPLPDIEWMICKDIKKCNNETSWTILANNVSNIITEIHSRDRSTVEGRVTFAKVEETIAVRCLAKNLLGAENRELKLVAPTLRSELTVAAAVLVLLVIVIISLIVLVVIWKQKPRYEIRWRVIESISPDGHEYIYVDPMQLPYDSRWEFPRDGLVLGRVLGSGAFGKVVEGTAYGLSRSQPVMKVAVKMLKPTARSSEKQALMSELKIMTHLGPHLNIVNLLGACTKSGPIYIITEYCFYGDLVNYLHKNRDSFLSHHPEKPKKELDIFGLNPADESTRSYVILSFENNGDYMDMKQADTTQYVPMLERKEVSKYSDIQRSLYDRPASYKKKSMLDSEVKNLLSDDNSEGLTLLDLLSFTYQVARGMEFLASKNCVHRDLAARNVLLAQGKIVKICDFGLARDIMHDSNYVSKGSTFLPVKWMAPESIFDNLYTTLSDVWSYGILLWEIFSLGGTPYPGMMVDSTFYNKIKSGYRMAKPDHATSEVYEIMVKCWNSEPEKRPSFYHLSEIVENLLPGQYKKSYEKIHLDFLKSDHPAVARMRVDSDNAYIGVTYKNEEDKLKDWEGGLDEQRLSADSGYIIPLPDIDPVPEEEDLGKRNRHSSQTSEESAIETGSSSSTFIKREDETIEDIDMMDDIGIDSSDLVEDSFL", "experiment": "Kinase profile assay and IC50 test (Eurofins)", "type": "biochemical", "procedure": "as §2"}, "Flt4 (h)/VEGFR3": {"target": "Flt4 (h)/VEGFR3 (Homo sapiens, UniProt P35916)", "experiment": "Kinase profile assay and IC50 test (Eurofins)", "type": "biochemical", "conditions": "double testing", "procedure": "as §2"}, "Src (1‐530) (h)": {"target": "T1, Src (1‐530) (h) (Homo sapiens, UniProt P12931)", "T1 construct": "Src (1‐530) (h)", "experiment": "Kinase profile assay and IC50 test (Eurofins)", "type": "biochemical", "conditions": "double testing", "procedure": "as §2"}, "PDGFRβ (h)": {"target": "PDGFRβ (h) (Homo sapiens, UniProt P09619)", "sequence (P09619 33-1106)": "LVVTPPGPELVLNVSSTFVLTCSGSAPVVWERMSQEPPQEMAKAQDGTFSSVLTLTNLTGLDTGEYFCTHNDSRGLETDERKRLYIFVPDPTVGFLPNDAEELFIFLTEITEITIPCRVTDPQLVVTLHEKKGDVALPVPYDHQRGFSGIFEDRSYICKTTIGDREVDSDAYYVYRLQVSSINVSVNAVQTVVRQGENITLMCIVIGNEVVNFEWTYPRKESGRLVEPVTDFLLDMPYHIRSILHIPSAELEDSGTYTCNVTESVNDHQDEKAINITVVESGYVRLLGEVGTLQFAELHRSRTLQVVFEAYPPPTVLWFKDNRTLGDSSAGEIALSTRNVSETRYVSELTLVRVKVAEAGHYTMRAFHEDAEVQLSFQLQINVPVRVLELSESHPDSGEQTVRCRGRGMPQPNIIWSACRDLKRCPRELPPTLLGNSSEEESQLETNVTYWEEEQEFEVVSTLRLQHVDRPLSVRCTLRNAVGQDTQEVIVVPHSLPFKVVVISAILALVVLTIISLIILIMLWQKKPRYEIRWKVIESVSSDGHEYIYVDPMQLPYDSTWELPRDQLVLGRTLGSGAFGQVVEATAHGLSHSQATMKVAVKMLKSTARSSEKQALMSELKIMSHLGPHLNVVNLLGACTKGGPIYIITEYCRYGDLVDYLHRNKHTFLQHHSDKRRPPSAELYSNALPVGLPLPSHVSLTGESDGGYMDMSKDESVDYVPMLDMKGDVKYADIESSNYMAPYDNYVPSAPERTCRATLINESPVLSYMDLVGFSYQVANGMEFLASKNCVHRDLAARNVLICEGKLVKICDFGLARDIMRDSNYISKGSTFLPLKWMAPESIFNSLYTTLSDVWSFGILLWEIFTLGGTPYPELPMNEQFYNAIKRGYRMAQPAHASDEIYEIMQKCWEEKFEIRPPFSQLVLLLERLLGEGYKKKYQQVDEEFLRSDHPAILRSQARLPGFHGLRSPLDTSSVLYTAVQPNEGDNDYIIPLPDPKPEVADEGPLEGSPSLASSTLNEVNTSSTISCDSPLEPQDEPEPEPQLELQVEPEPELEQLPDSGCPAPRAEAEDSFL", "experiment": "Kinase profile assay and IC50 test (Eurofins)", "type": "biochemical", "procedure": "as §2"}, "[4]": {"system": "lung MDSCs and macrophages", "experiment": "Flow cytometry of MDSCs and macrophages in lung tissue of BLM mice", "type": "in vivo, C57BL/6 mice", "conditions": "30 mg·kg^−1 i.p.", "procedure": "(§3) Male C57BL/6 mice (8‐10 weeks old) were purchased from HFK Bioscience Co. Ltd. All animal experiments were permitted by the Institutional Animal Care and Treatment Committee of Sichuan University in China (New Permit Number: 20190524003). Lung fibrosis was induced using BLM treatment (2 mg·kg^−1). All C57BL/6 mice were divided into five groups (n = 10): a BLM + Nintedanib group (Nintedanib, 30 mg·kg^−1), a BLM + YTH‐60 group (YTH‐60, 15 mg·kg^−1 and 30 mg·kg^−1), a control group (Sham), and a bleomycin group (Vehicle). At the beginning, the mice were anaesthetized using 10% chloral hydrate, dissolved BLM with saline and administered intratracheally. To evaluate the preventive effect, the next day after BLM challenge, YTH‐60 and Nintedanib were administered intraperitoneally daily for 13 days (fibroproliferation) to the mice. All mice were sacrificed 24 hours after the last drug injection, the lungs and other organs were taken for the subsequent analysis. To test the therapeutic effect, after the 7th day of BLM treatment, mice were injected intraperitoneally with YTH‐60, Nintedanib and vehicle daily for 7 consecutive days (fibroproliferation).\nWe analysed the percentage of MDSCs and macrophages by Flow cytometry (FCM). ^22 Use scissors to cut approximately 30 mg of mouse lung tissues into small pieces and use 5 mL of collagenase‐IV with a concentration of 1 mg·mL^−1, digested at 37°C for at least 1 hour. Centrifuge at 400 g for 5 minutes and discard the supernatant. Then, add another 5 mL PBS to resuspend, after precipitation, taken the supernatant and mixed with the corresponding fluorochromium binding antibody, incubate for 30 minutes in the dark at 4°C (MDSCs with PE^−CD11b^−, FITC^−Gr1^− conjugated dual labelling and macrophages with PE^−F4/80^−, FITC^−CD11b^− conjugated dual labelling). The data were acquired with a FACS Canton II NovoCyte (ACEA)."}, "A549 cells": {"system": "A549 cells", "experiment": "Cell viability assay (MTT)", "type": "cell-based, human", "procedure": "as §1"}, "[5]": {"system": "BLM‐induced pulmonary fibrosis", "experiment": "BLM‐induced pulmonary fibrosis mouse model, preventive treatment", "type": "in vivo, C57BL/6 mice", "conditions": "mice, day 14", "procedure": "as §3, with “To test the therapeutic effect, after the 7th day of BLM treatment, mice were injected intraperitoneally with YTH‐60, Nintedanib and vehicle daily for 7 consecutive days (fibroproliferation).” left out\nThe left lung was detached and immediately fixed in 4% paraformaldehyde for 72 hours and then embed with paraffin wax. […] Ashcroft scoring was used to examine the severity of pulmonary fibrosis. ^20 The image analysis‐based system to quantify collagen deposition was described previously. ^21 […]"}, "[6]": {"system": "BLM‐induced pulmonary fibrosis", "experiment": "BLM‐induced pulmonary fibrosis mouse model, therapeutic treatment (day 7 to 14)", "type": "in vivo, C57BL/6 mice", "conditions": "mice, 30 mg·kg^−1 i.p. from day 7 to 14", "procedure": "as §3, with “To test the therapeutic effect, after the 7th day of BLM treatment, mice were injected intraperitoneally with YTH‐60, Nintedanib and vehicle daily for 7 consecutive days (fibroproliferation).” left out\nThe left lung was detached and immediately fixed in 4% paraformaldehyde for 72 hours and then embed with paraffin wax. […] Ashcroft scoring was used to examine the severity of pulmonary fibrosis. ^20 The image analysis‐based system to quantify collagen deposition was described previously. ^21"}, "[7]": {"system": "α‐SMA, collagen I and TGF‐β1 mRNA in NIH‐3T3 cells", "experiment": "Real‐time qPCR of fibrosis markers in TGF‐β1‐treated fibroblasts", "type": "cell-based, mouse", "conditions": "NIH‐3T3, TGF‐β1 and 2.5 μmol·L^−1 for 24 hours", "procedure": "Total RNA of lung tissues or cells was extracted by using AxyPrep Multisource Total RNA Miniprep Kit (Axygen). Reverse transcription was carried out with Evo M‐MLV RT Kit with gDNA Clean (Accurate, AG11711). qRTPCR was conducted using SYBR Green Pro Taq HS (Accurate, AG11701)."}}, "data": [{"molecule": "COc1cc(OC)c(Cl)c(-c2ccc3c(/C=C/c4ccc(N(C)C(=O)CN5CCN(C)CC5)cc4)n[nH]c3c2)c1Cl", "note": "[YTH‐60, (E)‐N‐(4‐(2‐(6‐(2,6‐dichloro‐3,5‐dimethoxyphenyl)‐1H‐indazol‐3‐yl)vinyl)phenyl)‐N‐methyl‐2‐(4‐methylpiperazin‐1‐yl)acetamide]", "values": [{"measurement": "cell proliferation / viability (in words)", "setting": "[1]", "value": "inhibits cell proliferation in a time‐ and concentration‐dependent manner"}, {"measurement": "cell proliferation / viability (in words)", "setting": "[2]", "value": "inhibits cell proliferation in a time‐ and concentration‐dependent manner"}, {"measurement": "cell proliferation / viability (in words)", "setting": "[3]", "value": "inhibits cell proliferation in a time‐ and concentration‐dependent manner"}, {"measurement": "IC50", "setting": "Flt3 (h)", "value": 297, "unit": "nM"}, {"measurement": "IC50", "setting": "KDR (h)/VEGFR2", "value": 61, "unit": "nM"}, {"measurement": "IC50", "setting": "FGFR2 (h)", "value": 7, "unit": "nM"}, {"measurement": "IC50", "setting": "FGFR4 (h)", "value": 424, "unit": "nM"}, {"measurement": "IC50", "setting": "FGFR3 (h)", "value": 9, "unit": "nM"}, {"measurement": "IC50", "setting": "FGFR1 (h)", "value": 4, "unit": "nM"}, {"measurement": "kinase inhibition (in words)", "setting": "PDGFRα (h)", "value": "relatively weak kinase inhibition"}, {"measurement": "IC50", "setting": "PDGFRα (h); double testing", "value": 921, "unit": "nM"}, {"measurement": "IC50", "setting": "Flt4 (h)/VEGFR3", "value": 64, "unit": "nM"}, {"measurement": "IC50", "setting": "Src (1‐530) (h)", "value": 633, "unit": "nM"}, {"measurement": "kinase inhibition (in words)", "setting": "PDGFRβ (h)", "value": "relatively weak kinase inhibition"}, {"measurement": "IC50", "setting": "PDGFRβ (h); double testing", "value": "> 3000", "unit": "nM"}, {"measurement": "percentage of CD11b^+F4/80^+ cells (macrophages) in lung", "setting": "[4]; day 14, BLM group 19.9%, sham 9.9%", "value": 9.27, "unit": "%"}, {"measurement": "percentage of CD11b^+Gr1^+ cells (MDSCs) in lung", "setting": "[4]; day 14, BLM group 20.5%, sham 5.14%", "value": 7.07, "unit": "%"}, {"measurement": "viability of A549 cells (in words)", "setting": "A549 cells", "value": "suppressed the viability of A549 cells"}, {"measurement": "preventive effect on BLM‐induced pulmonary fibrosis (in words)", "setting": "[5]; 15 mg·kg^−1 i.p.", "value": "less effective"}, {"measurement": "preventive effect on BLM‐induced pulmonary fibrosis (in words)", "setting": "[5]; 30 mg·kg^−1 i.p.", "value": "good preventive effect"}, {"measurement": "therapeutic effect on BLM‐induced lung fibrosis (in words)", "setting": "[6]", "value": "good therapeutic effect"}, {"measurement": "mRNA levels of α‐SMA, collagen I and TGF‐β1 (in words)", "setting": "[7]", "value": "reduced this effect"}]}]}
